Data taken from patent US20110150795A1, “COSMETIC COMPOSITIONS COMPRISING EXOPOLYSACCHARIDES DERIVED FROM MICROBIAL MATS, AND USE THEREOF” (Innovactiv Inc., priority 2008, published 2011).
Marks after values point to notes of the source that are not given here. Each block holds one molecule with its values, some of them ahead of it.

Tests used:
human skin explants = test: Antipollution activity on human skin explants (MDA assay, morphology); details: for MDA concentration: 2 mg per explant topical
Experimental: This study was performed to evaluate the antipollution activity of a cosmetic product though its effect against free radicals on normal skin. A mixture of pollutants and heavy metals was used to mimic the harmful effects of an environmental pollution (like fumes, smoke . . . ). Explants were used as a skin model in this experiment as a good model of human skin.
Pieces of human skin (27 explants) were prepared from an abdominal biopsy removed from a healthy subject during cosmetic reductive surgery. They were placed in BEM medium at 37° C. and 5% CO2. The tested EPSS were applied on the surface of epidermis (topical treatment) at the indicated concentrations (2 mg per explant). They were applied the first day (Day 0) and after one, two, three and four days (Day 1, Day 2, Day 3 and Day 4).
At Day 4, 30 μL of a mixture of heavy metals (Table XII) and hydrocarbon was applied on a paper disk and immediately placed on identified explants.
At Day 0 and Day 5, 3 explants of each batch were removed and fixed in Bouin's liquid for morphological observation. After 48 hours in Bouin medium, explants were dehydrated, embedded in paraffin and stained in Masson's Trichrome. The MDA assay (Malondialdehyde, a stable product from the radical alteration) was performed in culture medium of Day 3, 24 h after irradiation to quantify the efficiency of products against free radicals generated by pollutants.

[1] = tested on: senescent human fibroblasts; test: Hyaluronic acid synthesis by senescent human fibroblasts (ELISA), with or without TGFβ; assay type: cell-based; details: for HA / HA % of control: 72 h
Text: This study has been performed in order to evaluate the effects of the EPSs on the synthesis of hyaluronic acid by senescent human fibroblasts. […] These senescent cells are obtained by subcultures of normal dermal fibroblasts and a senescent phenotype is obtained from the 12th passage.
This effect was attributed to an increase in sensitivity of cells to EGF. Based on this observation for EGF, a similar situation could exist for other factors like TGFβ. TGFβ has the ability to trigger HA synthesis. It has been observed however, that older cells become desensitized to TGFβ. Two types of effects of EPSS have thus been tested: their direct effect on the production of HA and their possibility to restore sensitivity of the cells to TGFβ.
Senescent fibroblasts were pre-cultivated for 24 hours until confluence. Then, the culture medium was removed and replaced by assay medium containing or not (control), the tested EPSS alone, TGFβ alone or the mix of tested EPSS with TGFβ. The cells were then cultivated for 72 hours. At the end of the incubation, the hyaluronic acid concentration was evaluated in the supernatant by a standard ELISA assay according to the manufacturer's procedures (R&D Systems DY3614) and cell viability was evaluated by using a standard MTT incorporation assay.

[2] = tested on: SkinEthic reconstructed human epidermis; test: Epidermal lipid synthesis (14C-acetate incorporation, TLC) in reconstructed epidermis; assay type: cell-based; details: 10^−6M in culture medium (systemic), 72 h
Experimental: This study was performed to evaluate the effect of EPSs of the invention on lipid synthesis. Phospholipids (cellular membranes) and neutral lipids (including epidermis specific lipids) were measured separately using thin layer chromatography. SkinEthic™ reconstructed human epidermis was used for model, its composition being close to normal human epidermis.
The epidermal tissues were placed in 24-well plates and cultivated for 12 h in SkinEthic™ medium. The medium was then replaced by fresh medium and the tested EPSS were applied on the surface of epidermis (topical treatment), at the indicated concentrations. Three control epidermises were untreated and three reference epidermises were treated with the retinoic acid, a known stimulant of total skin lipids, in the culture medium (systemic treatment). All treatments were performed in triplicate and cultivated for 72 hours in total. After 24 h treatment, the culture medium was replaced by labelling medium (0.225 μCi/wells of [^14C] acetate) and the epidermises were treated. The labelling was carried out during a 48-hour incubation period. The Radioactive marker used was [2-14C]-Acetic acid sodium salt, Amersham CFA14 (2.04 Gbq/mmol, 55 mCi/mmol). The epidermises were washed in PBS solution and were dissociated. Then, cells were lysed by treatment with perchloric acid at 0.5 M on ice. Lipids were extracted by methanol/chloroform (2:1) and phase separation was performed by addition of PBS and chloroform after neutralisation in accordance with the procedure described by Bligh and Dyer. The radioactivity was quantified by incorporation into organic phase (lipids) with liquid scintillation (LKB 1210 Rackbeta) after chloroform evaporation. The organic phases were dried under nitrogen and thin layer chromatography (TLC; plates Merck K60) was performed by using two solvent systems: chloroform/methanol/water for Phospholipids (50:18:2.6) or hexane/ether/acetic acid for Neutral lipids (15:5.6:0.19). The various metabolites were quantified by performing a direct count of the radioactivity of the various spots on TLC plates with Phosphorlmager Cyclone™ and Multigauge software (Fujifilm).

filaggrin (FLG) mRNA = test: RT-QPCR gene expression in human keratinocytes: filaggrin; assay type: cell-based; details: Table VIII (first step), 24 h
Experimental: (§1) This assay was performed in order to measure the effects of the EPSs on the induction of mRNA coding for differentiation proteins (filaggrin, loricrin, involucrin) and for stratum corneum tryptic enzyme involved in desquamation (kallikrein 5, 6 and 7). The relative expression of the selected markers was assayed using the “real time quantitative polymerase chain reaction” technology (RT-QPCR).
(§2) Keratinocytes were pre-cultivated in culture medium. At confluence, the culture medium was changed into assay medium (SFM without EGF and pituitary extract) containing or not (control) the test compound and the cells were incubated for 24 h at 37° C. and 5% CO2. At the end of the experiment, the cells were washed in PBS buffer and immediately frozen at −80° C. with 300 μl per well of Tri-reagent.
(§3) Primers couples allowing the amplification of a specific Polymerase Chain Reactions (PCR) product from each selected marker were used: Liver glyceraldehyde 3-phosphate dehydrogenase (G3PDH) was used as a reference marker in this experiment. The total RNA extraction was performed by Tri-Reagent™ according to the protocol. […]
(§4) Initially, the modulation of gene expression was evaluated on six EPSs at the first concentration (Table VIII). As a second step, it was evaluated on four EPSs at three concentrations (Table IX).

kallikrein 5 (KLK5) mRNA = test: RT-QPCR gene expression in human keratinocytes: KLK5; assay type: cell-based; details: Table VIII (first step), 24 h
Experimental: as §1, §2, §3, §4

[3] = tested on: kallikrein 6 (KLK6, neurosin) mRNA; test: RT-QPCR gene expression in human keratinocytes: KLK6; assay type: cell-based; details: Table VIII (first step), 24 h
Experimental: as §1, §2, §3, §4

loricrin (LOR) mRNA = test: RT-QPCR gene expression in human keratinocytes: loricrin; assay type: cell-based; details: Table VIII (first step), 24 h
Experimental: as §1, §2, §3, §4

involucrin (INV) mRNA = test: RT-QPCR gene expression in human keratinocytes: involucrin; assay type: cell-based; details: Table VIII (first step), 24 h
Experimental: as §1, §2, §3, §4

[4] = tested on: kallikrein 7 (KLK7, stratum corneum chymotrypsic enzyme) mRNA; test: RT-QPCR gene expression in human keratinocytes: KLK7; assay type: cell-based; details: Table VIII (first step), 24 h
Experimental: as §1, §2, §3, §4

human keratinocytes = test: Overall desquamation/differentiation gene expression profile in human keratinocytes; assay type: cell-based; details: 24 h
Experimental: as §1, §2, §3, §4

[5] = tested on: intracellular lipid peroxides of irradiated keratinocytes; test: Lipid peroxides in UV-irradiated keratinocytes (C11-Fluor probe, flow cytometry); assay type: cell-based, human; details: 50 μM; UVB 210 mJ/cm^2
Experimental: This study was performed to evaluate the effect of EPSs of the invention on the relative quantification of the amount of lipid peroxides (LP) (degradation of skin lipids) in human cells exposed or not to UVA+UVB irradiation. The evaluation was obtained by using a specific fluorescent probe and fluorescence flow cytometry analysis. This method offers a great sensitivity because the fluorescence of each cell is measured and numerous cells are evaluated (10000 cells per experimental condition).
Keratinocytes were pre-cultivated in complete SFM medium up to 100% of confluence. The culture medium was then replaced with assay medium containing or not the tested EPSS or the reference and the cells were incubated at 37° C. and 5% CO2 for 24 h. After incubation, a specific probe, fluorescent analogue of lipids (C11-Fluor) and the tested EPS or the references were incorporated and the cells were incubated at 37° C. and 5% CO2 for 45 minutes. The probe was then eliminated by rinsing with culture medium. The washing medium was replaced with culture medium containing the tested EPSs or the references. Untreated controls were carried out in parallel. The cells were irradiated at 210 mJ/cm^2 UVB. […] The fluorescence parameters were measured by flow cytometry with a FACSArray™ cytometer driven by the FACSArray™ system software (Becton-Dickinson) on 10 000 individual cells (no cell population selection). […]

[6] = skin explants without contaminant
[7] = culture with TGFβ section, TGFβ alone 1 · 10^−5 g/L (reference of this section)
[8] = culture without TGFβ section, TGFβ alone 1 · 10^−5 g/L

Molecule: Cc1c(C)c2c(c(C)c1O)CC[C@@](C)(CCC[C@H](C)CCC[C@H](C)CCCC(C)C)O2 [α tocopherol]
% pollution (human skin explants; skin explants + contaminant): 24.13%
% protection (human skin explants; skin explants + contaminant): 75.9%
antipollution activity (conclusion of MDA assay) (human skin explants; skin explants + contaminant): reduced pollutants activity
MDA concentration (human skin explants; skin explants + contaminant (heavy metals and hydrocarbon)): 544.93 pmol/mL
% pollution (human skin explants; [6]): 0.00%
MDA concentration (human skin explants; [6]): 392.28 pmol/mL

Molecule: TGFβ
increase of hyaluronic acid synthesis ([1]; TGFβ at 10 ng/ml): 4 folds
HA [1, 7]: 16.05 µg/mL
HA % of control [1, 7]: 100%
HA [1, 8]: 11.73 µg/mL
HA % of control [1, 8]: 473** %

Molecule: CC1=C(/C=C/C(C)=C/C=C/C(C)=C/C(=O)O)C(C)(C)CCC1 [Retinoic acid]
Ceramides and cerebrosides (Cera/Cere) synthesis [2]: 85* % Control
Cholesterol (C) synthesis [2]: 77* % Control
Esterified Fatty Acids (EFA) synthesis [2]: 133 % Control
Free Fatty Acids (FFA) synthesis [2]: 76 % Control
Phospholipids (PL) synthesis [2]: 105 % Control
Sphingomyelin (SM) synthesis [2]: 106 % Control
Sulfate Cholesterol (CSO4) synthesis [2]: 92 % Control
Total Lipids (TL) synthesis [2]: 175** % Control
Total Lipids (TL) synthesis ([2]; listed as retinoic acid): 175 % Control
FLG expression (control = 100) (filaggrin (FLG) mRNA; 10^−7M): 35
KLK5 expression (control = 100) (kallikrein 5 (KLK5) mRNA; 10^−7M): 146
KLK6 expression (control = 100) ([3]; 10^−7M): 315
LOR expression (control = 100) (loricrin (LOR) mRNA; 10^−7M): 29
INV expression (control = 100) (involucrin (INV) mRNA; 10^−7M): 79
KLK7 expression (control = 100) ([4]; 10^−7M): 268

KLK7 expression (control = 100) ([4]; 1.5 mM): 291
Molecule: [Ca+2].[Cl-].[Cl-] [CaCl2]
FLG expression (control = 100) (filaggrin (FLG) mRNA; 1.5 mM): 125
KLK5 expression (control = 100) (kallikrein 5 (KLK5) mRNA; 1.5 mM): 207
KLK6 expression (control = 100) ([3]; 1.5 mM): 110
LOR expression (control = 100) (loricrin (LOR) mRNA; 1.5 mM): 98
desquamation/differentiation gene expression profile (human keratinocytes): pro differentiation profile
INV expression (control = 100) (involucrin (INV) mRNA; 1.5 mM): 282

Molecule: COc1ccc(O)c(C(C)(C)C)c1 [BHA]
% protection (intracellular lipid peroxides) [5]: 76%
